Experimental data: ChEMBL document CHEMBL3421543, “Melanocortin antagonist tetrapeptides with minimal agonist activity at the mouse melanocortin-3 receptor” (ACS Med Chem Lett, 2015)
The source made the active and inactive calls. The calls are words filed in the database; no cut-off is given here. Where a SMILES comes first, the peptide text is derived from it. [ ]: non-standard residue; d: D form. dPhe(4-I) = N[C@H](Cc1ccc(I)cc1)C(=O)O

How the values were obtained:
Type in all cases: cell-based
[1] = target: Melanocyte-stimulating hormone receptor (Mus musculus, UniProt Q01727); assay: Agonist activity at mouse melanocortin-1 receptor transfected in HEK293 cells after 6 hrs by beta-galactosidase reporter gene assay
Chain of Melanocyte-stimulating hormone receptor (Q01727 whole entry): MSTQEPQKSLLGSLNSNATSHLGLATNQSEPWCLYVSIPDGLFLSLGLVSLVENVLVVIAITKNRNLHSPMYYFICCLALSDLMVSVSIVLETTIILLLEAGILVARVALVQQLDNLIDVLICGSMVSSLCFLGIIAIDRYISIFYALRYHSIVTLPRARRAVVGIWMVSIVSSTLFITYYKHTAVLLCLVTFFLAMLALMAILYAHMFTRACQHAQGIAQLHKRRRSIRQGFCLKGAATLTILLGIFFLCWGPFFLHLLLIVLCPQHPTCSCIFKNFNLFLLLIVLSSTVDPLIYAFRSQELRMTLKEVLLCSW

[2] = target: Melanocortin receptor 5 (Mus musculus, UniProt P41149); assay: Agonist activity at mouse melanocortin-5 receptor transfected in HEK293 cells after 6 hrs by beta-galactosidase reporter gene assay
Chain of Melanocortin receptor 5 (P41149 whole entry): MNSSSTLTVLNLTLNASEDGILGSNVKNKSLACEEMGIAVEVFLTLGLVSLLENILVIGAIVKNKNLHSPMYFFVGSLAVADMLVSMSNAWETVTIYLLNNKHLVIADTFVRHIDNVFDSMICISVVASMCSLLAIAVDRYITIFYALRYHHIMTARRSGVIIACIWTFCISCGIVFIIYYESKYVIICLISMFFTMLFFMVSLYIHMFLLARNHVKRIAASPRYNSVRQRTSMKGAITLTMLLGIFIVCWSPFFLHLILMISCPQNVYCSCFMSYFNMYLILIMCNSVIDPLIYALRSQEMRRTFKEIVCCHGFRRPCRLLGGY

[3] = target: Melanocortin receptor 3 (Mus musculus) (UniProt P33033); assay: Agonist activity at mouse melanocortin-3 receptor transfected in HEK293 cells at 100 uM after 6 hrs by beta-galactosidase reporter gene assay relative to MTII-induced maximal response
Chain of Melanocortin receptor 3 (Mus musculus) (P33033 whole entry): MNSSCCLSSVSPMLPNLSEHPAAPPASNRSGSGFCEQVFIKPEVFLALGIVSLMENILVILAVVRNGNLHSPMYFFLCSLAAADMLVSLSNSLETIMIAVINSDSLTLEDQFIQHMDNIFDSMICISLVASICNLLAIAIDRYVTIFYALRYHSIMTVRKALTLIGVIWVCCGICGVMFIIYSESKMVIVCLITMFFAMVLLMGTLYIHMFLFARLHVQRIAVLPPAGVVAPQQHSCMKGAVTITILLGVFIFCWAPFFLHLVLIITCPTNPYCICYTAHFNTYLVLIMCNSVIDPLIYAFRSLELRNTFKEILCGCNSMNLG

[4] = target: Melanocortin receptor 4 (Mus musculus) (UniProt P56450); assay: Agonist activity at mouse melanocortin-4 receptor transfected in HEK293 cells at 100 uM after 6 hrs by beta-galactosidase reporter gene assay relative to MTII-induced maximal response
Chain of Melanocortin receptor 4 (Mus musculus) (P56450 whole entry): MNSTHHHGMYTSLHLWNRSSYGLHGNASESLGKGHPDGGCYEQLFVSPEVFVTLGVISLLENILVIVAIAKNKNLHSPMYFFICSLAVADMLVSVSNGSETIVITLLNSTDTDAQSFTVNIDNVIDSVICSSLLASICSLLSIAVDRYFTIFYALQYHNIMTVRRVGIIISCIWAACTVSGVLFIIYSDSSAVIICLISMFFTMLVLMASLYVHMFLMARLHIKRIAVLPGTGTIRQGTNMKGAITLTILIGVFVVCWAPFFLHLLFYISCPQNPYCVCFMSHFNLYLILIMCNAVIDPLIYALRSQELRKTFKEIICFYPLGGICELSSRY

[5] = target: T1, Melanocortin receptor 4 (Mus musculus, UniProt P56450); assay: (§1) Antagonist activity at mouse melanocortin-4 receptor transfected in HEK293 cells assessed as inhibition of MTII-induced response after 6 hrs by Schild analysis; settings: for Kb: read-out: pA2 (converted)
T1 sequence (P56450 whole entry): as above

[6] = target: T1, Melanocortin receptor 4; assay: Agonist activity at mouse melanocortin-4 receptor transfected in HEK293 cells after 6 hrs by beta-galactosidase reporter gene assay
[7] = target: T2, Melanocortin receptor 3 (Mus musculus, UniProt P33033); assay: Agonist activity at mouse melanocortin-3 receptor transfected in HEK293 cells after 6 hrs by beta-galactosidase reporter gene assay
T2 sequence (P33033 whole entry): as the sequence (P33033 whole entry) above

[8] = target: Melanocortin receptor 3 (Mus musculus) (UniProt P33033); assay: Antagonist activity at mouse melanocortin-3 receptor transfected in HEK293 cells assessed as inhibition of MTII-induced response up to 100 uM after 6 hrs by Schild analysis
[9] = target: Melanocortin receptor 3 (Mus musculus) (UniProt P33033); assay: Agonist activity at mouse melanocortin-3 receptor transfected in HEK293 cells at 1 uM after 6 hrs by beta-galactosidase reporter gene assay relative to MTII-induced maximal response
[10] = target: Melanocortin receptor 4 (Mus musculus) (UniProt P56450); assay: as §1
[11] = target: Melanocortin receptor 3 (Mus musculus) (UniProt P33033); assay: (§2) Antagonist activity at mouse melanocortin-3 receptor transfected in HEK293 cells assessed as inhibition of MTII-induced response after 6 hrs by Schild analysis
[12] = target: T2, Melanocortin receptor 3; assay: as §2; settings: read-out: pA2 (converted)
[13] = target: Melanocortin receptor 3 (Mus musculus) (UniProt P33033); assay: Antagonist activity at mouse melanocortin-3 receptor transfected in HEK293 cells assessed as inhibition of MTII-induced response up to 10 uM after 6 hrs by Schild analysis

Structure (SMILES) | EC50 [1] [nM] | EC50 [2] [nM] | Kb [5] [nM] | EC50 [6] [nM] | EC50 [7] [nM] | also measured
CC(=O)N[C@@H](Cc1c[nH]c2ccccc12)C(=O)N[C@H](Cc1ccc(I)cc1)C(=O)N[C@@H](CCCNC(=N)N)C(=O)N[C@@H](Cc1c[nH]c2ccccc12)C(N)=O (Ac-W[dPhe(4-I)]RW-NH2) | 2000 | 2800 |  | > 100000 | > 100000 | 
CC(=O)N[C@@H](Cc1c[nH]c2ccccc12)C(=O)N[C@H](Cc1ccc(I)cc1)C(=O)N[C@@H](CCCNC(=N)N)C(=O)N[C@@H](Cc1csc2ccccc12)C(N)=O | 8300 | 23700 | 79.4 | > 100000 | > 100000 | inhibition [8]: inactive
CCCC[C@H](NC(C)=O)C(=O)N[C@H]1CC(=O)NCCCC[C@@H](C(N)=O)NC(=O)[C@H](Cc2c[nH]c3ccccc23)NC(=O)[C@H](CCCNC(=N)N)NC(=O)[C@@H](Cc2ccc3ccccc3c2)NC(=O)[C@H](Cc2c[nH]cn2)NC1=O | 0.67 |  |  |  |  | Activity [9]: 54%
CC(=O)N[C@@H](Cc1c[nH]c2ccccc12)C(=O)N[C@H](Cc1ccc(I)cc1)C(=O)N[C@@H](CCCNC(=N)N)C(=O)N[C@@H](Cc1ccc(-c2ccccc2)cc1)C(N)=O | 20700 | 7800 | 501 | > 100000 | > 100000 | INH [10]: 480 nM; inhibition [8]: inactive
CC(=O)N[C@@H](Cc1cnc[nH]1)C(=O)N[C@H](Cc1ccccc1)C(=O)N[C@@H](CCCNC(=N)N)C(=O)N[C@@H](Cc1c[nH]c2ccccc12)C(N)=O |  |  |  |  |  | pA2 [11]: inactive; pA2 [10]: inactive
CC(=O)N[C@@H](Cc1c[nH]c2ccccc12)C(=O)N[C@H](Cc1ccc(I)cc1)C(=O)N[C@@H](CCCNC(=N)N)C(=O)N[C@@H](Cc1ccc2ccccc2c1)C(N)=O | 5500 | 20300 | 5.01 | > 100000 | > 100000 | Kb [12]: 1260 nM; Ki [5]: < 6 nM
CC(=O)N[C@@H](Cc1c[nH]c2ccccc12)C(=O)N[C@H](Cc1ccc(I)cc1)C(=O)N[C@@H](CCCNC(=N)N)C(=O)N1Cc2ccccc2C[C@H]1C(N)=O | 2700 | 5300 | 1000 |  |  | Activity [3]: 48%; Activity [4]: 44%; INH [10]: 1000 nM; inhibition [13]: inactive
CC(=O)N[C@@H](Cc1c[nH]c2ccccc12)C(=O)N[C@H](Cc1ccc(I)cc1)C(=O)N[C@@H](CCCNC(=N)N)C(=O)N[C@H](Cc1ccc2ccccc2c1)C(N)=O | 5800 | 19700 | 5.01 | > 100000 | > 100000 | Kb [12]: 2000 nM; Ki [5]: < 6 nM

Second part, led by results:

EC50 [1] [nM] | EC50 [2] [nM] | Kb [5] [nM] | EC50 [6] [nM] | EC50 [7] [nM] | Structure (SMILES) | also measured
6500 | 1800 | 158 |  |  | CC(=O)N[C@@H](Cc1c[nH]c2ccccc12)C(=O)N[C@H](Cc1ccc(I)cc1)C(=O)N[C@@H](CCCNC(=N)N)C(=O)N[C@@H](Cc1ccccc1)C(N)=O | Activity [3]: 66%; Activity [4]: 44%
 | 4.6 |  | 5.4 |  | CC(=O)N[C@@H](Cc1cnc[nH]1)C(=O)N[C@H](Cc1ccccc1)C(=O)N[C@@H](CCCN=C(N)N)C(=O)N[C@@H](Cc1c[nH]c2ccccc12)C(N)=O | 
